Converted amounts (≈) assume the structure as drawn. Read-outs that look alike come from different tables or passages of the source.
What was measured:
[1] = test system: Vero cells; assay: Cytotoxicity test (MTT); assay type: cell-based; settings: Chlorocebus sabaeus
[2] = test system: mitochondrial protein synthesis; assay: Activity of inhibiting mitochondrial protein synthesis; assay type: biochemical
Method: The experimental steps were carried out according to the literature (Antimicrobial Agents and Chemotherapy, 2006, 50 (6), 2042-2049).

[3] = test system: Mycobacterium tuberculosis H37Rv; assay: Anti-tuberculosis activity test in vitro (Microplate Alamar Blue Assay, MABA); assay type: cell-based
[4] = Vero cells, MTT, 48 hours of incubation, highest concentration 64 μg/mL, read-out: IC50
[5] = mitochondrial protein synthesis inhibition, Table 3
[6] = M. tuberculosis H37Rv, MABA, 7H9 medium, method says MIC90 was calculated, read-out: MIC

Row | SMILES | melting point [°C] | IC50 [1, 4] [µg/mL] | MIC [3, 6] [µg/mL] | also measured
1 | O=C(NC[C@@H]1OC(=O)N2c3cc(F)c(N4C5CCC4CSC5)cc3OC[C@@H]12)c1cnccn1 | > 250 | – | – | –
2 | CNC[C@@H]1OC(=O)N2c3cc(F)c(N4CCSCC4)cc3OC[C@@H]12 [Compound 2, (3S,3aS)-8-Fluoro-3-((methylamino)methyl)-7-thiomorpholino-3a,4-dihydro-1H,3H-benzo[b]oxazolo[3,4-d][1,4]oxazin-1-one] | 155 to 156 | 46.5 (≈ 132 µM) | – | –
3 | CS(=O)(=O)NC[C@@H]1OC(=O)N2c3cc(F)c(N4CCSCC4)cc3OC[C@@H]12 [Compound 3, N-(((3S,3aS)-8-Fluoro-1-oxo-7-thiomorpholino-3a,4-dihydro-1H,3H-benzo[b]oxazolo[3,4-d][1,4]oxazin-3-yl)methyl)methanesulfonamide] | 234 to 235 | > 64 | – | –
4 | CC(=O)NC[C@@H]1OC(=O)N2c3cc(F)c(N4CCSCC4)cc3OC[C@@H]12 [Compound 4, N-(((3S,3aS)-8-Fluoro-1-oxo-7-thiomorpholino-3a,4-dihydro-1H,3H-benzo[b]oxazolo[3,4-d][1,4]oxazin-3-yl)methyl)acetamide] | – | > 64 | 0.044 (≈ 0.115 µM) | IC50 [2, 5]: 99.39 µg/mL
5 | NC[C@@H]1OC(=O)N2c3cc(F)c(N4[C@@H]5CC[C@H]4CSC5)cc3OC[C@@H]12 [Compound 13, (3S,3aS)-3-(Aminomethyl)-7-((1R,5S)-3-thia-8-azabicyclo[3.2.1]octan-8-yl)-8-fluoro-3a,4-dihydro-1H,3H-benzo[b]oxazolo[3,4-d][1,4]oxazin-1-one] | 168 to 169 | – | – | MIC ([3]; H37RV): 0.609 µg/mL (≈ 1.67 µM)
6 | CC(=O)NC[C@@H]1OC(=O)N2c3cc(F)c(N4[C@@H]5CC[C@H]4CSC5)cc3OC[C@@H]12 [Compound 14, N-(((3S,3aS)-7-((1R,5S)-3-thia-8-azabicyclo[3.2.1]octan-8-yl)-8-fluoro-1-oxo-3a,4-dihydro-1H,3H-benzo[b]oxazolo[3,4-d][1,4]oxazin-3-yl)methyl)acetamide] | 235 to 236 | – | – | IC50 ([1]; Vero, 48 h): 58.5 µg/mL (≈ 144 µM); MIC ([3]; H37RV): 0.918 µg/mL (≈ 2.25 µM)
7 | CC(C)C(=O)NC[C@@H]1OC(=O)N2c3cc(F)c(N4C5CCC4CSC5)cc3OC[C@@H]12 [Compound 15] | 164 to 165 | – | – | IC50 ([1]; Vero, 48 h): > 64 µg/mL
8 | O=C(NC[C@@H]1OC(=O)N2c3cc(F)c(N4[C@@H]5CC[C@H]4CSC5)cc3OC[C@@H]12)C1CC1 [Compound 16, N-(((3S,3aS)-7-((1R,5S)-3-thia-8-azabicyclo[3.2.1]octan-8-yl)-8-fluoro-1-oxo-3a,4-dihydro-1H,3H-benzo[b]oxazolo[3,4-d][1,4]oxazin-3-yl)methyl)cyclopropanecarboxamide] | 169 to 171 | – | – | IC50 ([1]; Vero, 48 h): > 64 µg/mL; MIC ([3]; H37RV): 0.976 µg/mL (≈ 2.25 µM)
9 | O=C(NC[C@@H]1OC(=O)N2c3cc(F)c(N4[C@@H]5CC[C@H]4CSC5)cc3OC[C@@H]12)C1CCC1 [Compound 17, N-(((3S,3aS)-7-((1R,5S)-3-thia-8-azabicyclo[3.2.1]octan-8-yl)-8-fluoro-1-oxo-3a,4-dihydro-1H,3H-benzo[b]oxazolo[3,4-d][1,4]oxazin-3-yl)methyl)cyclobutanecarboxamide] | 195 to 196 | – | – | IC50 ([1]; Vero, 48 h): 34.7 µg/mL (≈ 77.5 µM); MIC ([3]; H37RV): 0.974 µg/mL (≈ 2.18 µM)
10 | COC(=O)NC[C@@H]1OC(=O)N2c3cc(F)c(N4[C@@H]5CC[C@H]4CSC5)cc3OC[C@@H]12 [Compound 18, Methyl (((3S,3aS)-7-((1R,5S)-3-thia-8-azabicyclo[3.2.1]octan-8-yl)-8-fluoro-1-oxo-3a,4-dihydro-1H,3H-benzo[b]oxazolo[3,4-d][1,4]oxazin-3-yl)methyl)carbamate] | 149 to 151 | – | – | IC50 ([1]; Vero, 48 h): > 64 µg/mL
11 | O=C1O[C@@H](CNc2ccon2)[C@@H]2COc3cc(N4[C@@H]5CC[C@H]4CSC5)c(F)cc3N12 [Compound 19, (3S,3aS)-7-((1R,5S)-3-thia-8-azabicyclo[3.2.1]octan-8-yl)-8-fluoro-3-((isoxazol-3-ylamino)methyl)-3a,4-dihydro-1H,3H-benzo[b]oxazolo[3,4-d][1,4]oxazin-1-one] | 180 to 182 | – | – | IC50 ([1]; Vero, 48 h): > 64 µg/mL
12 | O=C(NC[C@@H]1OC(=O)N2c3cc(F)c(N4[C@@H]5CC[C@H]4CSC5)cc3OC[C@@H]12)c1ccncc1 [Compound 20, N-(((3S,3aS)-7-((1R,5S)-3-thia-8-azabicyclo[3.2.1]octan-8-yl)-8-fluoro-1-oxo-3a,4-dihydro-1H,3H-benzo[b]oxazolo[3,4-d][1,4]oxazin-3-yl)methyl)isonicotinamide] | 149 to 150 | – | – | IC50 ([1]; Vero, 48 h): > 64 µg/mL
13 | O=C1O[C@@H](Cn2ccnn2)[C@@H]2COc3cc(N4[C@@H]5CC[C@H]4CSC5)c(F)cc3N12 [Compound 22, (3S,3aS)-3-((1H-1,2,3-Triazol-1-yl)methyl)-7-((1R,5S)-3-thia-8-azabicyclo[3.2.1]octan-8-yl)-8-fluoro-3a,4-dihydro-1H,3H-benzo[b]oxazolo[3,4-d][1,4]oxazin-1-one] | 225 to 227 | – | – | IC50 ([1]; Vero, 48 h): > 64 µg/mL
14 | CC(=O)NC[C@@H]1OC(=O)N2c3cc(F)c(N4CC5(COC5)C4)cc3OC[C@@H]12 [Compound 24, N-(((3S,3aS)-8-Fluoro-1-oxo-7-(2-oxa-6-azaspiro[3.3]heptan-6-yl)-3a,4-dihydro-1H,3H-benzo[b]oxazolo[3,4-d][1,4]oxazin-3-yl)methyl)acetamide] | 105 to 107 | > 64 | – | –
15 | O=C(NC[C@@H]1OC(=O)N2c3cc(F)c(N4CC5(COC5)C4)cc3OC[C@@H]12)C1CC1 [Compound 25, N-(((3S,3aS)-8-Fluoro-1-oxo-7-(2-oxa-6-azaspiro[3.3]heptan-6-yl)-3a,4-dihydro-1H,3H-benzo[b]oxazolo[3,4-d][1,4]oxazin-3-yl)methyl)cyclopropanecarboxamide] | 181 to 183 | > 64 | – | –
16 | O=C(NC[C@@H]1OC(=O)N2c3cc(F)c(N4CC5(COC5)C4)cc3OC[C@@H]12)C1CCC1 [Compound 26, N-(((3S,3aS)-8-Fluoro-1-oxo-7-(2-oxa-6-azaspiro[3.3]heptan-6-yl)-3a,4-dihydro-1H,3H-benzo[b]oxazolo[3,4-d][1,4]oxazin-3-yl)methyl)cyclobutanecarboxamide] | 118 to 120 | > 64 | – | –
17 | O=C1O[C@@H](Cn2ccnn2)[C@@H]2COc3cc(N4CC5(COC5)C4)c(F)cc3N12 [Compound 27, (3S,3aS)-3-((1H-1,2,3-Triazol-1-yl)methyl)-8-fluoro-7-(2-oxa-6-azaspiro[3.3]heptan-6-y 1)-3a,4-dihydro-1H,3H-benzo[b]oxazolo[3,4-d][1,4]oxazin-1-one] | 219 to 221 | > 64 | – | –
18 | CC(=O)NC[C@H]1OC(=O)N2c3cc(F)c(N4CCSCC4)cc3OC[C@H]12 [Compound 28, N-(((3R,3aR)-8-Fluoro-1-oxo-7-thiomorpholino-3a,4-dihydro-1H,3H-benzo[b]oxazolo[3,4-d][1,4]oxazin-3-yl)methyl)acetamide] | – | > 64 | 0.232 (≈ 0.608 µM) | IC50 [2, 5]: >100 µg/mL
19 | COC(=O)NC[C@H]1OC(=O)N2c3cc(F)c(N4CCSCC4)cc3OC[C@H]12 [Compound 30, Methyl (((3R,3aR)-8-fluoro-1-oxo-7-thiomorpholino-3a,4-dihydro-1H,3H-benzo[b]oxazolo[3,4-d][l, 4]oxazin-3-yl)methyl)carbamate] | 158 to 160 | > 64 | 0.208 (≈ 0.523 µM) | –
20 | CC(=O)NC[C@@H]1OC(=O)N2c3cc(F)c(N4CCC(F)(F)CC4)cc3OC[C@@H]12 [Compound 32, N-(((3S,3aS)-7-(4,4-Difluoropiperidin-1-yl)-8-fluoro-1-oxo-3a,4-dihydro-1H,3H-benzo[b]oxazolo[3,4-d][1,4]oxazin-3-yl)methyl)acetamide] | 230 to 232 | > 64 | 0.908 (≈ 2.27 µM) | –
21 | O=C(NC[C@@H]1OC(=O)N2c3cc(F)c(N4CCSCC4)cc3OC[C@@H]12)C(F)F [Compound 33, 2,2-Difluoro-N-(((3S,3aS)-8-fluoro-1-oxo-7-thiomorpholino-3a,4-dihydro-1H,3H-benzo [b]oxazolo[3,4-d][1,4]oxazin-3-yl)methyl)acetamide] | 200 to 202 | 61.6 (≈ 148 µM) | 0.1 (≈ 0.24 µM) | –
22 | O=C(NC[C@@H]1OC(=O)N2c3cc(F)c(N4CC[S+]([O-])CC4)cc3OC[C@@H]12)C(F)F [Compound 34, 2,2-Difluoro-N-(((3S,3aS)-8-fluoro-7-(1-oxidothiomorpholino)-1-oxo-3a,4-dihydro-1H, 3H-benzo[b]oxazolo[3,4-d][1,4]oxazin-3-yl)methyl)acetamide] | 190 to 192 | > 64 | 0.492 (≈ 1.14 µM) | –
23 | CC(=O)NC[C@@H]1OC(=O)N2c3cc(F)c(N4CCS(=O)(=O)CC4)cc3OC[C@@H]12 [Compound 35, N-(((3S,3aS)-7-(1,1-dioxidothiomorpholino)-8-fluoro-1-oxo-3a,4-dihydro-1H,3H-benzo [b]oxazolo[3,4-d][1,4]oxazin-3-yl)methyl)acetamide] | 226 to 228 | > 64 | 0.48 (≈ 1.16 µM) | –
24 | O=C1O[C@@H](CNC2COC2)[C@@H]2COc3cc(N4CCSCC4)c(F)cc3N12 [Compound 36, (3S,3aS)-8-Fluoro-3-((oxetan-3-ylamino)methyl)-7-thiomorpholino-3a,4-dihydro-1H,3H-benzo[b]oxazolo[3,4-d][1,4]oxazin-1-one] | 162 to 164 | > 64 | 0.237 (≈ 0.599 µM) | –
25 | CC(=O)NC[C@@H]1OC(=O)N2c3ccc(N4CCOCC4)cc3OC[C@@H]12 [Compound VII, reference compound] | – | – | 1.55 (≈ 4.45 µM) | IC50 [2, 5]: 35.82 µg/mL; IC50 ([2]; read-out: IC50 value of mitochondrial protein synthesis inhibition): 35.8 µM
26 | CC(=O)NC[C@H]1CN(c2ccc(N3CCOCC3)c(F)c2)C(=O)O1 [Linezolid, reference compound] | – | – | 0.294 (≈ 0.871 µM) | IC50 [2, 5]: 8.71 µg/mL
27 | CC(=O)NC[C@H]1CN(c2ccc(N3CCSCC3)c(F)c2)C(=O)O1 [Sutezolid, reference compound] | – | – | 0.078 (≈ 0.221 µM) | IC50 [2, 5]: 7.98 µg/mL

Source: patent US11332477B2, “Nitrogen containing heterocycle substituted benzoxazine oxazolidinone compound and preparation method and use thereof” (INSTITUTE OF MATERIA MEDICA, CHINESE ACADEMY OF MEDICAL …, priority 2017, dated 2022)
